Experimental data reported in US11723944B2 (priority 2015, dated 2023).

Molecular target: BoNT/A holotoxin (Clostridium botulinum, UniProt P0DPI0)
Sequence (P0DPI0 2-448 limits assumed): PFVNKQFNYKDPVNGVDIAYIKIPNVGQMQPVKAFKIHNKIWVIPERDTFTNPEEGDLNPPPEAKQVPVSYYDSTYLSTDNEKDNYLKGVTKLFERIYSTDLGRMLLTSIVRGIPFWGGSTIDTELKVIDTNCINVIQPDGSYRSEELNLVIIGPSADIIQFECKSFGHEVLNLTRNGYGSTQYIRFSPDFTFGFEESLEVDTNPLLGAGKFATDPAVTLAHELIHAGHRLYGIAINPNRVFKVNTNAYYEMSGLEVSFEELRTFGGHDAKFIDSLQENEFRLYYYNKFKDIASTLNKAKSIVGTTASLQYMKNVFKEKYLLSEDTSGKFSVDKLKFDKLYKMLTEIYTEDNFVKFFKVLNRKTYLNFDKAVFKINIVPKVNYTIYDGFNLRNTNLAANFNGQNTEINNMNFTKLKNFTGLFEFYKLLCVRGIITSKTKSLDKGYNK

NH2-Dab(DNP)-R-[Lys(N3)-T-Dab-Pra]-L-Lys(DBCO-STP)-Tz4-G-Aib-L-[Pra-NYRWL-Lys(N3)] [Inh-2-STP]
latest time after exposure with partial rescue: ≤ 3 h
rescue from internalized BoNT (SNAP-25 cleavage): partial rescue
